Earlier results on one molecule are cited in patent publication US7771771B2, “Phytosterol compositions” (Raisio Nutrition Ltd., priority 1998, dated 2010).

One data set deals with serum cholesterol. Particulars: rats; compared with sitosterol.
In data set [1] the test system is serum cholesterol; aortic atheroma. Particulars: compared with sitosterol.
The next data set relates to LDL cholesterol. Particulars: children with severe familial hypercholesterolemia; compared with sitosterol.
For data set [2] the following is noted: in words.
Data set [3] relates to cholesterol content of mixed micelles. Particulars: compared with sitosterol.

On to `CC[C@H](CC[C@@H](C)[C@H]1CC[C@H]2[C@@H]3CC[C@H]4C[C@@H](O)CC[C@]4(C)[C@H]3CC[C@]12C)C(C)C` [sitostanol], for which the hypocholesterolemic activity result in the data set on serum cholesterol was “higher hypocholes-terolemic activity than sitosterol”. Besides, the “formation of aortic atheroma due to cholesterol feeding” value in data set [1] is “depressed the formation of aortic atheroma due to cholesterol feeding more than did sitosterol”. For the same molecule, the “reducing elevated levels of LDL cholesterol” value in the data set on LDL cholesterol was “significantly more effective than sitosterol”. For the same molecule, the absorption result in data set [2] was “virtually unabsorbed”. Also, the “lowering of the cholesterol content of mixed micelles” value in data set [3] is reported as “more efficiently than sitosterol”.
